Laboratory results as given in patent US9475773B2, “NK3 receptor antagonist compound (NK3RA) for use in a method for the treatment of polycystic ovary syndrome (PCOS)” (ASTRAZENECA AB, priority 2013, dated 2016).

What was measured:
rats [1] = assay: Cardiovascular effects in rats; format: in vivo, rat; details: 46 mg/kg orally (100 μmol/kg), highest dose tested
mice = assay: Neurobehavioral test battery in mice; format: in vivo; details: oral doses 100, 300 and 600 mg/kg
Procedure: (§1) Safety pharmacology studies were carried out on NK3RA and included tests to investigate possible effects on the central nervous system (CNS), cardiovascular system, and respiratory system.

NK2 = target: T1, NK2 (Homo sapiens, UniProt P21452); assay: Specificity over other tachykinin receptors (NK2); format: binding
T1 sequence (P21452 1-398): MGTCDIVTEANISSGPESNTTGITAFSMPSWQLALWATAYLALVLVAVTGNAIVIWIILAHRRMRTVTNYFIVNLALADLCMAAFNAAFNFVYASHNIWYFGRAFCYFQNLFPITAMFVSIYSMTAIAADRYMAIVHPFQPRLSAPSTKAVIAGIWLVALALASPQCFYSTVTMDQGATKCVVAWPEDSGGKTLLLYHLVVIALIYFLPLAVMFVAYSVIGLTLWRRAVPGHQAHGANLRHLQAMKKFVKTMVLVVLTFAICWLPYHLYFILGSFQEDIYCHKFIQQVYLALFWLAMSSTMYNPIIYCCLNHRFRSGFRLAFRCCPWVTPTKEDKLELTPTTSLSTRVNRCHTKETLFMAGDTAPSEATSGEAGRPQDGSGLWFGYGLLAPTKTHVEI

rat [2] = assay: Modified rat Irwin test; format: in vivo; details: oral 46, 460 and 2022 mg/kg
Procedure: as §1

female rabbits = assay: Rabbit maternal toxicity and fetal observations; format: in vivo
Procedure: In female rabbits, the no effect dose level for maternal toxicity was 25 mg/kg/day. The no adverse effect dose level for fetal observations was 50 mg/kg/day.

NK1 = NK1 (Homo sapiens, UniProt P25103); assay: Specificity over other tachykinin receptors (NK1); format: binding
Chain of NK1 (P25103 whole entry): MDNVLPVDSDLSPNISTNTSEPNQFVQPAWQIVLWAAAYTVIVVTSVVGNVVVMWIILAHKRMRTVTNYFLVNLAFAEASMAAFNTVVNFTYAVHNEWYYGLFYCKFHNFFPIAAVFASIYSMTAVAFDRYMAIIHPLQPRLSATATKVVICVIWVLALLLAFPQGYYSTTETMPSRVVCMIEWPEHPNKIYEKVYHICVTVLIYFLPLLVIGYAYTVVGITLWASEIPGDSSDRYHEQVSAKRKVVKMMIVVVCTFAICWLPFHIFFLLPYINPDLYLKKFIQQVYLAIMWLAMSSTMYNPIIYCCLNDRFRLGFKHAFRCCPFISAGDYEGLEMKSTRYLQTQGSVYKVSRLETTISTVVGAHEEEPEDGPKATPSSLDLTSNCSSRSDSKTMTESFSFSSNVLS

[3] = Pharmacokinetics and metabolism in rats; format: in vivo, rat
Procedure: At low doses, the estimated Clp of The NK3RA was moderate in rat (8.3 ml/min/kg) and low in the dog (1.2 ml/min/kg). Bioavailability (F) was ˜100% in both species indicating extensive absorption in these species. The volume of distribution (Vz) was moderate (1.6 L·kg in rat and 0.81 L/kg in dog) and consistent with the physico-chemical properties of the compound. […] The NK3RA exposure decreased after multiple dosing in rats, indicating either changes in absorption or induction of The NK3RA metabolism, or both, after multiple dosing. […] T1/2 values ranged from 5.6 hours to 14.3 hours at the end of dosing for dogs dosed at 1000 mg/kg/day (2180 μmol/kg/day). There were no consistent sex differences observed in the exposure to NK3RA in these 2 species.
Following oral administration of The NK3RA in the rat, a pharmacologically active ketone metabolite appeared rapidly in plasma but slowly reached maximum concentration levels in all animals. […] T1/2 values ranged from 8.51 hours to 13.8 hours on Day 27 and Day 28 for dogs dosed with 1000 mg/kg/day (2180 μmol/kg/day) of the NK3RA. There were no consistent sex differences observed in the exposure to the metabolite in these 2 species.

rats [4] = assay: Single and repeat-dose toxicology in rats; format: in vivo, rat
Procedure: Relative epididymis weight was lower at 2000 mg/kg/day.

hERG channel = hERG channel (Homo sapiens, UniProt Q12809); assay: hERG channel in vitro (tail current); format: cell-based
Chain of hERG channel (Q12809 whole entry): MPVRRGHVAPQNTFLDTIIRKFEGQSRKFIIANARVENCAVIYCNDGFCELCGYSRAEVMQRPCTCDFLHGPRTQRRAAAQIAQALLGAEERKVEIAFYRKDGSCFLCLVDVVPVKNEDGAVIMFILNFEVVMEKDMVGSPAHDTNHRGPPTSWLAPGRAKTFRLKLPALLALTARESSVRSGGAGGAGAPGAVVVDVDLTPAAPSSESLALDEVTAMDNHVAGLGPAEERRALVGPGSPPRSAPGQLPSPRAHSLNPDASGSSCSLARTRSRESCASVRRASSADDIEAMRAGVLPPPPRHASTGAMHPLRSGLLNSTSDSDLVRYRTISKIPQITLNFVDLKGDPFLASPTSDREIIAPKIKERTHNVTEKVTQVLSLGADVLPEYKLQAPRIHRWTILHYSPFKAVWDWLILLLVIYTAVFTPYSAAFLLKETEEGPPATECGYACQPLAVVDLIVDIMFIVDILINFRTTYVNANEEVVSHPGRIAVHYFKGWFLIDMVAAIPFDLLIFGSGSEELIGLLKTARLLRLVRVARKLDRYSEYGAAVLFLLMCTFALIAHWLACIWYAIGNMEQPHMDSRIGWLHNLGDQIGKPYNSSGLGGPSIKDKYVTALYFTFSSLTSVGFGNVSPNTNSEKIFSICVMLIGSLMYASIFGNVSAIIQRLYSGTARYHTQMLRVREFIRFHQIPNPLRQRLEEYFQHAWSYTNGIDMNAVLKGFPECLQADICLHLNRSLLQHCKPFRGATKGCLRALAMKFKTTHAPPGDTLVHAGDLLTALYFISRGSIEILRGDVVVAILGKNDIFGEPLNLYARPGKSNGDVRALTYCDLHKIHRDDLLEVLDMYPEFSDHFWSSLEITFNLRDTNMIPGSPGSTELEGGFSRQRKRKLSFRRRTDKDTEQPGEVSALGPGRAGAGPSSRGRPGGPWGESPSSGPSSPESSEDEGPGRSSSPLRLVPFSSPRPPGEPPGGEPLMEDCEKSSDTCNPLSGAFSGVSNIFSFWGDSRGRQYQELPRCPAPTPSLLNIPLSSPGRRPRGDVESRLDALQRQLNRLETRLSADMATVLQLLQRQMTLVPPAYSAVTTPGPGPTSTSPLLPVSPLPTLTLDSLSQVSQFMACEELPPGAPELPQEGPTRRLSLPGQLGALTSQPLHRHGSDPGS

dogs [5] = assay: Single and repeat-dose toxicology in dogs; format: in vivo, dog
Text: In female dogs, ovarian uterine weights were reduced in treated animals. […] Thyroid weights were increased in the high dose group females. No other target organs have been identified.
Epididymides and prostate glands had gained maturity, but aspermia was present in all dogs and testicular immaturity remained. […]

rats [6] = assay: Respiratory parameters in rats; format: in vivo, rat; details: up to 2000 mg/kg (4400 μmol/kg)
dogs [7] = assay: Dog electrocardiographic (ECG) telemetry study; format: in vivo
serum testosterone [8] = assay: Phase II PoP schizophrenia trial, serum testosterone; format: in vivo, human; details: schizophrenia patients, 40 mg QD
rat [9] = assay: Rat cocaine drug discrimination assay; format: in vivo; details: oral doses up to 46 mg/kg
serum testosterone [10] = assay: SAD and MAD studies, serum testosterone in healthy male volunteers; format: in vivo, human
[11] = Pharmacokinetics in humans (healthy male subjects); format: in vivo, human
Procedure: Pharmacokinetic properties have been investigated in healthy male subjects. […] The elimination half-life for the NK3RA was approximately 7 hours. […] Renal elimination of the NK3RA or its metabolite was negligible. Following multiple dose administration, pharmacokinetic steady state was achieved within 4 days. At steady state, the exposure to the metabolite was approximately 66% of the parent circulated; the accumulation of the NK3RA in the plasma was minimal following QD dosing and was greater following BID dosing.

[12] = rat 3 month study, 2000 mg/kg/day

Question: With `CC[C@H](NC(=O)c1c(NS(C)(=O)=O)c(-c2ccccc2)nc2ccccc12)c1ccccc1` [NK3RA, 3-(methanesulfonamido)-2-phenyl-N-[(1S)-1-phenylpropyl]quinoline-4-carboxamide] as the molecule, how does the cardiovascular effects (rats [1]) read?
Answer: no cardiovascular effects

Question: And the neurobehavioral effects (mice)?
Answer: transient deficits in gait and spontaneous motor activity

Question: What about the “time to full recovery” value (mice) of the same molecule?
Answer: ≤ 24 h

Question: What about the “specificity for NK3 over NK2” value (NK2) of the same molecule?
Answer: > 800 fold

Question: What about the “findings in modified Irwin test” value (rat [2]) of the same molecule?
Answer: no significant findings

Question: What about the “no adverse effect dose level for fetal observations” value (female rabbits) of the same molecule?
Answer: 50 mg/kg/day

Question: What about the “no effect dose level for maternal toxicity” value (female rabbits) of the same molecule?
Answer: 25 mg/kg/day

Question: What about the “specificity for NK3 over NK1” value (NK1) of the same molecule?
Answer: greater than 1200 fold

Question: And the clearance ([3]; plasma, rat, low doses, estimated, read-out: Clp)?
Answer: 8.3 mL/min/kg

Question: And the volume of distribution (Vz) ([3]; rat)?
Answer: 1.6 L/kg

Question: What about the rate of absorption ([3]; rat, oral administration) of the same molecule?
Answer: absorbed at a moderate rate

Question: What about the bioavailability ([3]; rat, plasma, oral, read-out: Bioavailability (F)) of the same molecule?
Answer: ~100%

Question: And the half-life ([3]; rat, plasma, read-out: elimination half-life (T½) (converted))?
Answer: 3.2 h

Question: And the “exposure after multiple dosing” value ([3]; rats)?
Answer: decreased

Question: What about the histological changes (rats [4]; rat 3 month study) of the same molecule?
Answer: no NK3RA-related histological changes

Question: What about the absolute testis weight (rats [4]; [12]) of the same molecule?
Answer: lower

Question: And the relative epididymis weight (rats [4]; [12])?
Answer: lower

Question: What about the relative testis weight (rats [4]; rat 3 month study, 200 and 2000 mg/kg/day (dose-related)) of the same molecule?
Answer: lower than controls

Question: And the “findings at the highest doses” value (rats [4]; rats)?
Answer: increased liver weights with no histological correlate

Question: And the “findings in the female reproductive system, repeat-dose toxicology studies” value (rats [4]; rats)?
Answer: no findings in the female reproductive system

Question: What about the “tolerability, multiple dosing for three month” value (rats [4]; rats, up to 2000 mg/kg/day) of the same molecule?
Answer: well tolerated

Question: What about the “tolerability, single dosing” value (rats [4]; rats, up to the limit dose of 2000 mg/kg) of the same molecule?
Answer: well tolerated

Question: What about the inhibition at 97 µM (hERG channel; human, 97 μM) of the same molecule?
Answer: 25%

Question: And the “activity at the hERG channel” value (hERG channel; in vitro)?
Answer: only weakly active

Question: And the “NOEL (testis, epididymis and prostate weights)” value (dogs [5]; dog)?
Answer: no NOEL was established

Question: And the “plasma testosterone levels throughout the study” value (dogs [5]; dog)?
Answer: virtually totally suppressed

Question: What about the “testes weights following the recovery period” value (dogs [5]; dog) of the same molecule?
Answer: only partially returned to control values

Question: What about the “time after dosing by which plasma testosterone was very low” value (dogs [5]; dog) of the same molecule?
Answer: ≤ 4 h

Question: And the hepatobiliary toxicity (dogs [5]; dogs)?
Answer: hepatobiliary toxicity in one high dose male

Question: What about the thyroid weights (dogs [5]; dogs, high dose group females) of the same molecule?
Answer: increased

Question: And the liver weights (dogs [5]; dogs, mid and high doses)?
Answer: Increased

Question: What about the “tolerability, multiple dosing for three month” value (dogs [5]; dogs, up to 1000 mg/kg/day) of the same molecule?
Answer: well tolerated

Question: And the “tolerability, single dosing” value (dogs [5]; dogs, up to the limit dose of 2000 mg/kg)?
Answer: well tolerated

Question: What about the “female reproductive findings, 3-month study” value (dogs [5]; female dogs) of the same molecule?
Answer: reductions in ovarian and uterine weights and an increased incidence of anestrus

Question: What about the ovarian uterine weights (dogs [5]; female dogs) of the same molecule?
Answer: reduced

Question: What about the “recovery of female reproductive findings” value (dogs [5]; female dogs, following 3 months off-dose) of the same molecule?
Answer: complete recovery

Question: And the “target organs in males” value (dogs [5]; male dogs)?
Answer: the testis, epididymis, and prostate were target organs

Question: And the respiratory parameters (rats [6])?
Answer: did not affect any respiratory parameters

Question: What about the “effect on blood pressure” value (dogs [7]) of the same molecule?
Answer: no effect

Question: And the “other ECG parameters including QTc interval duration” value (dogs [7])?
Answer: No other ECG parameter, including QTc interval duration, was affected

Question: What about the “reduction in heart rate” value (dogs [7]; highest dose tested 2000 mg/kg orally, transient, dose-related) of the same molecule?
Answer: up to 29%

Question: What about the serum testosterone (serum testosterone [8]) of the same molecule?
Answer: reduction in serum testosterone

Question: What about the “activity in cocaine drug discrimination” value (rat [9]) of the same molecule?
Answer: no activity

Question: What about the serum testosterone (serum testosterone [10]; healthy male volunteers, SAD 1-80 mg, MAD 5 mg QD to 30 mg BID for up to 6 days) of the same molecule?
Answer: dose dependent reduction in serum testosterone

Question: What about the “durability of total testosterone reduction” value (serum testosterone [10]; male volunteers and male schizophrenia patients) of the same molecule?
Answer: reductions in total testosterone levels durable up to 28 days

Question: What about the “accumulation in the plasma” value ([11]; BID dosing (compared with QD)) of the same molecule?
Answer: greater

Question: What about the “accumulation in the plasma” value ([11]; QD dosing) of the same molecule?
Answer: minimal

Question: And the “absorption following oral dosing” value ([11]; healthy male subjects)?
Answer: quickly absorbed

Question: And the renal elimination ([11]; healthy male subjects)?
Answer: negligible

Question: What about the “time dependence of pharmacokinetics” value ([11]; human, in vivo) of the same molecule?
Answer: time independent

Question: What about the half-life ([11]; human, plasma, oral, healthy male subjects, read-out: elimination half-life (converted)) of the same molecule?
Answer: ~7 h

Question: And the “time to pharmacokinetic steady state” value ([11]; multiple dose administration)?
Answer: ≤ 4 days

Question: And the “dose proportionality of AUC and Cmax” value ([11]; up to approximately 80 mg)?
Answer: dose proportional
